Measurements published in patent publication US20240124483A1, “Methods for the Treatment of Fibrotic Disease” (SHY Therapeutics, LLC, priority 2021, published 2024).
Where two headings read alike, the source gives them in different places.

Target: KRas Q61H mutant (Homo sapiens (Human), UniProt P01116, Q61H)
Assay: Ras GTP Binding Domain Inhibition Assay, KRas Q61H mutant
Protocol: A Ras Superfamily Activity Assay (as disclosed in International Application No. PCT/US2018/038613, filed Jun. 20, 2018, which is incorporated by reference in its entirety) was used as a specific assay to evaluate compounds against the following for the following Ras Superfamily proteins: KRas wild type, KRas Q61H mutant, KRas G12C mutant, KRas G12D mutant, Rac-1, and Rho-A.
Buffer-I: • 25 mM Tris-HCl, pH 7.4 • 27 mM KCl • 137 mM NaCl • 1 mM MgCl2 • 1 mM DTT
Buffer-II: • 50 mM Tris-HCl, pH 7.0 • 1 mM MgCl2 • 1 mM DTT
The small GTPases proteins: KRas wild type. KRas Q61H mutant, KRas G12C mutant, KRas G12D mutants, Rac-1, and Rho-A were expressed as His-tagged proteins. In addition, the Guanosine nucleotide Exchange Factor (GEF) Sos protein (residues 556-1049) was expressed as a His-tagged protein. In cells, the guanine nucleotide exchange factor Sos protein promotes activation of Ras proteins by stimulating an exchange of GDP for GTP. The inclusion of Sos to the Ras GTP binding domain inhibition assay may be considered as an alternative representation of physiological cellular conditions for evaluating the inhibitory activity of some of the tested small molecules.
For the assay, all purified small GTPases proteins were diluted in Buffer-I or Buffer-II to a final concentration of 10-30 μg/mL. 200 μL of each diluted protein was added to a nickel-coated 96-well plate and incubated overnight at 4° C. Then the protein solution was discarded and 200 μL of Buffer-I or Buffer-II was added to each well in the presence of 1% DMSO. Compounds to be tested were added to the protein-coated wells at final concentration of 20 μM, and incubated for 3 hours at room temperature with and without 10-30 μg/mL of Sos added to the final hour of the incubation. When performing IC50 measurements a serial dilution of all tested concentrations was added. Then Cy3-GTP or Cy5-GTP was added to each well to a final concentration of 100 nM. The labeled GTP was incubated for 45 minutes at room temperature. Following GTP incubation, wells were washed 3× in Buffer-I or Buffer-II and 200 μL of Buffer-I or Buffer-II was added to each well. Following washes, the amount of bound labeled-GTP was measured using a SpectraMax M3 (Molecular Devices).

[1] = + SOS, read-out: KRas Q61H mutant + SOS: % inh.
[2] = without SOS, read-out: KRas Q61H mutant: % inh.

KRas Q61H mutant, sequence (P01116 other isoform, or with tags, fused parts or gaps Q61H): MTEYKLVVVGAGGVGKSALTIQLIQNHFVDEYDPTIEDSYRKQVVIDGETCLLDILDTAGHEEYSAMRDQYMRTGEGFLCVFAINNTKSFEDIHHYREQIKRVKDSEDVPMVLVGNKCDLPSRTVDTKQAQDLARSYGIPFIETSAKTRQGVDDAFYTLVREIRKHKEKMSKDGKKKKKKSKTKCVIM

| SMILES | inhibition at 20 µM [1] | inhibition at 20 µM [2] | IC50 (+ SOS) |
| --- | --- | --- | --- |
| CO[C@H]1CC[C@@H](Nc2nc(-c3nccn3C)nc3sc(-c4ccn(C(C)C)n4)c(C)c23)C1 (racemic) [Compound 12, rac-6-(1-Isopropyl-1H-pyrazol-3-yl)-N-((1R,3S)-3-methoxycyclopentyl)-5-methyl-2-(1-methyl-1H-imidazol-2-yl)thieno[2,3-d]pyrimidin-4-amine] | 76 to 100% | 76 to 100% | 5 to 10 µM |
| COCCNc1nc(-c2cn(C)cn2)nc2sc(-c3cccc(OC)c3Cl)c(-c3ccc(OC)cc3)c12 [Compound 8, 6-(2-Chloro-3-methoxyphenyl)-N-(2-methoxyethyl)-5-(4-methoxyphenyl)-2-(1-methyl-1H-imidazol-4-yl)thieno[2,3-d]pyrimidin-4-amine] | 76 to 100% | 46 to 75% | – |
| COCCCNc1nc(-c2nccn2C)nc2sc(-c3ccccc3)c(-c3ccccc3)c12 [Compound 3, N-(3-Methoxypropyl)-2-(1-methyl-1H-imidazol-2-yl)-5,6-diphenylthieno[2,3-d]pyrimidin-4-amine] | 46 to 75% | 46 to 75% | – |
| COCCNc1nc(-c2nccn2C)nc2sc(-c3cccc(OC)c3Cl)c(-c3ccc(OC)cc3)c12 [Compound 7, 6-(2-Chloro-3-methoxyphenyl)-N-(2-methoxyethyl)-5-(4-methoxyphenyl)-2-(1-methyl-1H-imidazol-2-yl)thieno[2,3-d]pyrimidin-4-amine] | 76 to 100% | 26 to 45% | – |
| COCCNc1nc(-c2nccn2C)nc2sc(-c3ccccc3)c(-c3ccccc3)c12 [Compound 1, N-(2-Methoxyethyl)-2-(1-methyl-1H-imidazol-2-yl)-5,6-diphenylthieno[2,3-d]pyrimidin-4-amine] | 46 to 75% | 46 to 75% | – |
| CO[C@@H]1CC[C@H](Nc2nc(-c3nccn3C)nc3sc(-c4ccn(C(C)C)n4)c(-c4ccccc4)c23)C1 (single isomer, unassigned) [Compound 11] | 76 to 100% | 46 to 75% | 1 to 4.99 µM |
| COCCNc1nc(-c2nccn2C)nc2sc(-c3cccc(OC)c3Cl)c(-c3ccccc3)c12 [Compound 9, 6-(2-Chloro-3-methoxyphenyl)-N-(2-methoxyethyl)-2-(1-methyl-1H-imidazol-2-yl)-5-phenylthieno[2,3-d]pyrimidin-4-amine] | 76 to 100% | 46 to 75% | – |
| COC1CCN(c2nc(-c3nccn3C)nc3sc(-c4ccn(C)n4)c(-c4ccccc4)c23)CC1 [Compound 6, 4-(4-Methoxypiperidin-1-yl)-2-(1-methyl-1H-imidazol-2-yl)-6-(1-methyl-1H-pyrazol-3-yl)-5-phenylthieno[2,3-d]pyrimidine] | 46 to 75% | 46 to 75% | – |
| COc1cccc(-c2sc3nc(-c4nccn4C)nc(NC4CCC(OC)C4)c3c2C)c1F (racemic) [Compound 10, rac-6-(2-Fluoro-3-methoxyphenyl)-N-((1R,3S)-3-methoxycyclopentyl)-5-methyl-2-(1-methyl-1H-imidazol-2-yl)thieno[2,3-d]pyrimidin-4-amine and rac-6-(2-Fluoro-3-methoxyphenyl)-N-((1R,3R)-3-methoxycyclopentyl)-5-methyl-2-(1-methyl-1H-imidazol-2-yl)thieno[2,3-d]pyrimidin-4-amine] | 46 to 75% | 46 to 75% | – |
| COCCn1ccnc1-c1nc(N[C@H]2C[C@@H](OC)C2)c2c(-c3ccccc3)c(-c3ccn(C)n3)sc2n1 [Compound 13, N-((1s,3s)-3-methoxycyclobutyl)-2-(1-(2-methoxyethyl)-1H-imidazol-2-yl)-6-(1-methyl-1H-pyrazol-3-yl)-5-phenylthieno[2,3-d]pyrimidin-4-amine] | 76 to 100% | 76 to 100% | 1 to 4.99 µM |
